Laboratory results published in patent EP0415470A2, “Aminopeptidase” (CAMPINA MELKUNIE B.V., priority 1989, dated 1991).
“Also recorded” adds a separate entry of the source. Where a SMILES comes first, the peptide text is derived from it. The star is where a group is joined. pNA = O=[N+]([O-])c1ccc(N*)cc1

Tests used:
[1] = target: T1, aminopeptidase of L. lactis subsp. cremoris Wg2 (Lactococcus lactis subsp. cremoris, UniProt P0C2T8); format: biochemical
T1 sequence (P0C2T8 1-846): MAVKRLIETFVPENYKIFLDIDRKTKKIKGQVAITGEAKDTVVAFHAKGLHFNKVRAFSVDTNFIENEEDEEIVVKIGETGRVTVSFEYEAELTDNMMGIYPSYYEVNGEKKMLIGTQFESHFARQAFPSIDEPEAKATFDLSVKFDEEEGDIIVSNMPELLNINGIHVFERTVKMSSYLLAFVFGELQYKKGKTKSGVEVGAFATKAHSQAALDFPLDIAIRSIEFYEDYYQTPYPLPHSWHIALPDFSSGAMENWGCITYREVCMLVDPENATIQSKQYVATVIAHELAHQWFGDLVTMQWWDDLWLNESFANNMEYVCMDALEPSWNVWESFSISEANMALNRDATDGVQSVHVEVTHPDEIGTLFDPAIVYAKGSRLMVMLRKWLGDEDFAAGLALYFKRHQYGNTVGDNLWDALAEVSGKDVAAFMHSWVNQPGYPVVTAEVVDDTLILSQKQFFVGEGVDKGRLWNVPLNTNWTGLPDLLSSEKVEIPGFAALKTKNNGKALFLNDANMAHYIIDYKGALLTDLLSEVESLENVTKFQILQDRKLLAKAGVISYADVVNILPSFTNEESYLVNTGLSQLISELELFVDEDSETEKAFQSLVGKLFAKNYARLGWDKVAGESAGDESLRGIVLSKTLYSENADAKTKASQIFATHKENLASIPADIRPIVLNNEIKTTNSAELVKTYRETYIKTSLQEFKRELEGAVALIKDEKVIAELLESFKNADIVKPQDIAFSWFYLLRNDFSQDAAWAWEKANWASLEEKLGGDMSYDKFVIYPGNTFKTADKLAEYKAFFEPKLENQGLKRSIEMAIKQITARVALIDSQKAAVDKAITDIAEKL

[2] = target: T1, aminopeptidase of L. lactis subsp. cremoris Wg2; test: Hydrolysis of lysyl-p-nitroanilide / X-p-nitroanilide substrates (release of p-nitroanilide at 410 nm); conditions: for Relative activity (%): relative hydrolysis velocity of X-p-nitroanilide substrates
[3] = target: T1, aminopeptidase of L. lactis subsp. cremoris Wg2; test: Hydrolysis of peptides detected by thin-layer chromatography (TLC); format: biochemical; design: The cell extract obtained after sonication and centrifugation of L. lactis subsp. cremoris Wg2; endogenous in cells; host or cells: Proteinase-negative variant of Lactococcus lactis subsp. cremoris Wg2; Enzyme purified from the cell-free extract by DEAE-Sephacel, phenyl-Sepharose, Sephadex G-100 SF and MA7P HPLC; not recombinant; key to Activity: + : hydrolysis; - : no hydrolysis to be observed; conditions: for hydrolysis of peptides (in words): peptide as substrate of the aminopeptidase; for Activity: substrate specificity, 2 mM substrate, 20 mM HEPES pH 7, 60 min. at 30°C, TLC
Experimental: Hydrolysis of several peptides was detected by thin-­layer chromatography (TLC). Peptidase activity was determined as follows: the reaction mixture containing 2 mM substrate in 20 mM 4-(2-hydroxyethyl)-1-piperazine-ethanesulphonic acid (HEPES) pH 7 and a suitable amount of enzyme was incubated for 60 min. at 30°C. The reaction mixture (10 microliter) was then placed on a precoated silica gel 60 plate having a layer thickness of 0.25 cm (Merck, Darmstadt, West-Germany). A 75% (wt./vol.) phenol/water mixture and in some cases a 4/1/1 (vol./vol./vol.) mixture of n-butanol, acetic acid and water was used as mobile phase. As a control, 2 mM of each standard peptide was also placed on the plate. The silica gels were coloured by spraying them with 0.1% (wt./vol.) ninhydrin in 99% ethanol. Peptides and amino acids became visible after incubation of the silica gel in an oven for 5 min. at 80°C.

[4] = target: T1, aminopeptidase of L. lactis subsp. cremoris Wg2; format: biochemical; remark: listed apart in the source
[5] = target: T1, aminopeptidase of L. lactis subsp. cremoris Wg2; test: Hydrolysis of lysyl-p-nitroanilide / X-p-nitroanilide substrates (release of p-nitroanilide at 410 nm); format: biochemical; design: The cell extract obtained after sonication and centrifugation of L. lactis subsp. cremoris Wg2; endogenous in cells; host or cells: Proteinase-negative variant of Lactococcus lactis subsp. cremoris Wg2; Enzyme purified from the cell-free extract by DEAE-Sephacel, phenyl-Sepharose, Sephadex G-100 SF and MA7P HPLC; not recombinant; conditions: relative hydrolysis velocity of X-p-nitroanilide substrates
Experimental: Hydrolysis of lysyl-p-nitroanilide was determined by the method of Exterkate, Neth. Milk Diary J. 29, 1975, 303-318. A 2 mM solution of lysyl-p-nitroanilide was incubated for 15 minutes with a suitable amount of enzyme. The reaction was stopped by adding acetic acid up to a final concentration of 10%, and the amount of p-nitroanilide was measured at 410 nm (Hitachi U-1100 spectrophotometer).
All measurements of enzyme activities were carried out at 30°C in 20 mM HEPES pH 7, unless specified.
The highest activity was found for lysyl-p-nitroanilide and to a lesser extent for leucyl-p-nitroanilide. […] The affinity of the enzyme for lysyl-p-nitroanilide was determined.

[6] = substrate: NCCCCC(N)C(=O)Nc1ccc([N+](=O)[O-])cc1; test: purified protein, by the assay type; conditions: other: Lineweaver-Burk plot, substrate of the aminopeptidase; pH 7.0; 30.0 °C

## O=C(O)c1cc[c]([Hg][Cl])cc1 [pCMB, p-chloromercuribenzoate]
[1]
  effect of chemical reagents on the aminopeptidase activity (in words): completely inhibited; also recorded: strong inhibition

## NCCCCC(N)C(=O)Nc1ccc([N+](=O)[O-])cc1 (stereo not drawn) [Lys-pNA, lysyl-p-nitroanilide]
[2]
  hydrolysis of p-nitroanilide substrates (in words): hydrolyses
  Relative activity (%): 100%
[2]; Lineweaver-Burk plot
  maximum peptide hydrolysis velocity: 1 millimol/min./mg

## COC(CNC(=O)c1ccccc1OCC(=O)O)[CH2][Hg][OH] (stereo not drawn) [mersalyl, O-(3-hydroxymercuri-2-methoxypropyl) carbamyl phenoxyacetate]
[1]
  effect of chemical reagents on the aminopeptidase activity (in words): completely inhibited; also recorded: strong inhibition

## alanyl-alanine [Ala-Ala]
[3]; listed as ala-ala
  hydrolysis of peptides (in words): does not prove capable of significant hydrolysis
[3]; listed as alanyl-alanine
  hydrolysis of peptides (in words): not
[3]
  Activity: -

## [Ca+2] [Ca⁺⁺]
[1]
  inhibitory effect of divalent cations on the enzyme activity (in words): no inhibitory effect at all
  restoration of the activity of the enzyme treated with 1,10-phenanthroline (in words): could not restore the enzyme activity

## NC(Cc1ccccc1)C(=O)Nc1ccc([N+](=O)[O-])cc1 (stereo not drawn) [Phe-pNA]
[2]
  Relative activity (%): 4%

## carboxybenzoxy-phenylalanyl-alanine
[3]
  hydrolysis of peptides (in words): does not seem capable of hydrolysis

## OC(CS)C(O)CS (stereo not drawn) [DTT, dithiotreitol]
[1]
  effect of chemical reagents on the aminopeptidase activity (in words): no inhibitory effect; also recorded: insensitive
[4]
  inactivating effects of pCMB and mersalyl undone by reducing agent (in words): completely undone

## benzoyl-glycyl-lysine
[3]
  hydrolysis of peptides (in words): does not seem capable of hydrolysis

## CCN1C(=O)C=CC1=O [NEM, N-ethylmaleimide]
[1]
  effect of chemical reagents on the aminopeptidase activity (in words): inhibitory effect; also recorded: strong inhibition

## O=S(=O)(O)c1cc[c]([Hg][Cl])cc1 [pCMBS, p-chloromercuribenzenesulphonate]
[1]
  effect of chemical reagents on the aminopeptidase activity (in words): completely inhibited; also recorded: strong inhibition

## c1cnc2c(c1)ccc1cccnc12 [1,10-phenanthroline]
[1]
  inhibition of the enzyme activity by chelating agents (in words): complete inhibition; also recorded: sensitivity

## Leu-Leu
[3]
  hydrolysis of peptides (in words): hydrolyses
  Activity: +

## O=C(Nc1ccc([N+](=O)[O-])cc1)C1CCCN1 (stereo not drawn) [Pro-pNA]
[2]
  Relative activity (%): < 1%

## CSCCC(N)C(=O)Nc1ccc([N+](=O)[O-])cc1 (stereo not drawn) [Met-pNA, methionyl-p-nitroanilide]
[2]
  Relative activity (%): 8%

## N[C@@H](CCC(=O)O)C(=O)Nc1ccc([N+](=O)[O-])cc1 [Glu-pNA]
[2]
  Relative activity (%): < 1%

## NC(=O)CI [iodoacetamide]
[1]
  effect of chemical reagents on the aminopeptidase activity (in words): inhibitory effect; also recorded: strong inhibition

## [Mg+2] [Mg⁺⁺]
[1]
  inhibitory effect of divalent cations on the enzyme activity (in words): no inhibitory effect at all
  restoration of the activity of the enzyme treated with 1,10-phenanthroline (in words): could not restore the enzyme activity

## OCCS [β-mercaptoethanol]
[1]
  effect of chemical reagents on the aminopeptidase activity (in words): no inhibitory effect; also recorded: insensitive
[4]
  inactivating effects of pCMB and mersalyl undone by reducing agent (in words): completely undone

## Phe-Val
[3]
  hydrolysis of peptides (in words): does not prove capable of significant hydrolysis
  Activity: -

## CC(N)C(=O)Nc1ccc([N+](=O)[O-])cc1 (stereo not drawn) [Ala-pNA]
[2]
  Relative activity (%): 4%

## O=C(O)CN(CCN(CC(=O)O)CC(=O)O)CC(=O)O [EDTA]
[1]
  inhibition of the enzyme activity by chelating agents (in words): complete inhibition; also recorded: sensitivity

## Phe-Leu
[3]
  hydrolysis of peptides (in words): does not prove capable of significant hydrolysis
  Activity: -

## PMSF
[1]
  effect of chemical reagents on the aminopeptidase activity (in words): insensitive

## C[C@H](N)C(=O)N1CCC[C@H]1C(=O)Nc1ccc([N+](=O)[O-])cc1 [Ala-Pro-pNA] (H-Ala-Pro-pNA)
[5]
  Relative activity (%): 4%

## Bradykinin (RPPGFSPFR; Bradykinin; UniProt P01042 381-389, looked up)
[3]
  hydrolysis of peptides (in words): hydrolyses; also recorded: can also act on
  Activity: +

## carbobenzoxy-prolylalanine
[3]
  hydrolysis of peptides (in words): does not seem capable of hydrolysis

## NCC(=O)Nc1ccc([N+](=O)[O-])cc1 [Gly-pNA]
[2]
  Relative activity (%): < 1%

## CC(C)CC(N)C(=O)Nc1ccc([N+](=O)[O-])cc1 (stereo not drawn) [Leu-pNA, leucyl-p-nitroanilide]
[2]
  hydrolysis of p-nitroanilide substrates (in words): hydrolyses
  Relative activity (%): 24%

B1: aminopeptidase of L. lactis subsp. cremoris Wg2 (Lactococcus cremoris) (protein)
chain: MAVKRLIETFVPENYKIFLDIDRKTKKIKGQVAITGEAKDTVVAFHAKGLHFNKVRAFSVDTNFIENEEDEEIVVKIGETGRVTVSFEYEAELTDNMMGIYPSYYEVNGEKKMLIGTQFESHFARQAFPSIDEPEAKATFDLSVKFDEEEGDIIVSNMPELLNINGIHVFERTVKMSSYLLAFVFGELQYKKGKTKSGVEVGAFATKAHSQAALDFPLDIAIRSIEFYEDYYQTPYPLPHSWHIALPDFSSGAMENWGCITYREVCMLVDPENATIQSKQYVATVIAHELAHQWFGDLVTMQWWDDLWLNESFANNMEYVCMDALEPSWNVWESFSISEANMALNRDATDGVQSVHVEVTHPDEIGTLFDPAIVYAKGSRLMVMLRKWLGDEDFAAGLALYFKRHQYGNTVGDNLWDALAEVSGKDVAAFMHSWVNQPGYPVVTAEVVDDTLILSQKQFFVGEGVDKGRLWNVPLNTNWTGLPDLLSSEKVEIPGFAALKTKNNGKALFLNDANMAHYIIDYKGALLTDLLSEVESLENVTKFQILQDRKLLAKAGVISYADVVNILPSFTNEESYLVNTGLSQLISELELFVDEDSETEKAFQSLVGKLFAKNYARLGWDKVAGESAGDESLRGIVLSKTLYSENADAKTKASQIFATHKENLASIPADIRPIVLNNEIKTTNSAELVKTYRETYIKTSLQEFKRELEGAVALIKDEKVIAELLESFKNADIVKPQDIAFSWFYLLRNDFSQDAAWAWEKANWASLEEKLGGDMSYDKFVIYPGNTFKTADKLAEYKAFFEPKLENQGLKRSIEMAIKQITARVALIDSQKAAVDKAITDIAEKL
[6]
  Km: 550 µM
  Vmax: 1000 µmol/min. mg protein
  kcat: 1580 s⁻¹
